The text below walks through data of patent US20060051352A1, “CEA binding agents and compositions to reverse CEA-mediated tumorigenic effects on human cancer cells, restore sensitivity to drug induced apoptosis and uses thereof” (priority 2004, published 2006).

The subject of assay [1] is human colorectal carcinoma cell lines, SW-1222 and LS-180. The note with it: A20 Fab 100 μg/ml ex vivo, 0.5 mg/dose iv daily day 3-8; taxol 5 nM ex vivo, 5 mg/kg ip day 4; analysis day 9.
Procedure: The efficacy was investigated by a treatment protocol in which the ability of the treated cells to conform to normal colonic tissue architecture and to fail to form tumors, was assessed.
Several experiments were conducted in which the effect on two human colorectal carcinoma cell lines (test cells), when mixed in a defined proportion with normal fetal rat colonic cells and grown as aggregates implanted under the kidney capsule of nude mice, of taxol alone, taxol in combination with irrelevant isotype matched control P3X Fabs, and taxol in combination with A20 Fabs, was compared. The test cells in the “mini-colons” that developed after 7-10 days were assessed for either conformance to normal crypt-like tissue architecture or for formation of tumors (43).
With this in mind, the treatment regimen employed subjecting the test cells to the maximum possible dose over the course of the assay. This regimen included three administrations of A20 Fabs to the test cells in the ex vivo portion of the assay (pre-treatment, during which the aggregates are constructed), followed by daily intravenous injections during the in vivo growth of the implanted aggregates (therapeutic treatment). Pre-treatment of the test cells with A20 Fabs at 100 μg/ml commenced on day 0. […]
Assay [2] has as its system human colorectal carcinoma cells. The assay is described as follows: Lung metastases of human colorectal carcinoma cells in nude mice. The assay is classed as in vivo. Conditions: after 30 days; PEG-A20Fab 200 μg iv, Taxol 5 mg/kg ip every 6 days; versus untreated animals. On the procedure:
Mice were inoculated by intravenous injection of human colorectal carcinoma cells on day 0. Treatment was initiated either immediately following inoculation or 12 hours thereafter. PEGylated A20 Fab fragments (PEG-A20Fab) were administered intravenously (200 μg or 7-8 mg/kg) every day for the first 2 days followed by every 3 days thereafter. Taxol was administered at 5 mg/kg every 6 days (ip). After 30 days, the number of lung surface colonies, representing metastases, were counted.

The subject of assay [3] is CEA-mediated intercellular adhesion. Conditions: from references (16), (29); cited from earlier work.
Assay [4] addresses T1, human carcinoembryonic antigen (CEA), wild type (human, UniProt P06731 35-685, glycophosphatidyl inositol (GPI) membrane anchor).
T1 sequence (looked up): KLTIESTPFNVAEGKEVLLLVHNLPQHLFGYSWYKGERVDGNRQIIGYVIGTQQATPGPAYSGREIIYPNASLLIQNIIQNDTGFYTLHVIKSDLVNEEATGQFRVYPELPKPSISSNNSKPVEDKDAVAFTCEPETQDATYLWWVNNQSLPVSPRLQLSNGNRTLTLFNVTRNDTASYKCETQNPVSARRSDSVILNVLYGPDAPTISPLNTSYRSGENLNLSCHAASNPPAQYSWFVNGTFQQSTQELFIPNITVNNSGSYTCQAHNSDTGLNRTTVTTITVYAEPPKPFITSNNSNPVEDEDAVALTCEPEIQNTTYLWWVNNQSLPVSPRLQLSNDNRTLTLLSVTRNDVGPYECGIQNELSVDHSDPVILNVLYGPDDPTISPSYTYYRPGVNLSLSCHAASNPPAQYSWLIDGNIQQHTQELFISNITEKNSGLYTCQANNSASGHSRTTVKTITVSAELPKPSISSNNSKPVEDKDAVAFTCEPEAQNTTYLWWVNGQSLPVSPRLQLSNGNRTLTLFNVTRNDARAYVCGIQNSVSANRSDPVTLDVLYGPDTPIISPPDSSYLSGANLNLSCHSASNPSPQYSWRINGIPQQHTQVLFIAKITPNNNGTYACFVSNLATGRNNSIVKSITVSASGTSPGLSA
The assay is described as follows: cell-based or functional assay.

Bridge positions count the residues as written; N and C are the ends.

Take `CC(=O)O[C@H]1C(=O)[C@@]2(C)[C@H]([C@H](OC(=O)c3ccccc3)[C@]3(O)C[C@H](OC(=O)[C@H](O)[C@@H](NC(=O)c4ccccc4)c4ccccc4)C(C)=C1C3(C)C)[C@]1(OC(C)=O)CO[C@@H]1C[C@@H]2O` [Taxol, Paclitaxel]: in assay [1], the “tumor growth in mini-colons” value is “much larger, more solid and less differentiated”. For the same molecule, the “number of lung surface colonies” value in assay [2] is recorded as “no effect”.
For the molecule “H-CQNDTGC-OH (disulfide 1-7; also: synthetic cyclic peptide) [cyclized peptide representing subdomain 3 of the CEA N domain]”, the “inhibition of CEA-mediated intercellular adhesion” value in assay [3] is listed as “effective in inhibiting CEA-mediated intercellular adhesion”.

B1: cyclized peptide H-CQNDTGC-OH (subdomain 3) (peptide)
peptide: H-CQNDTGC-OH
modifications: disulfide 1-7
SMILES: C[C@@H](O)[C@@H]1NC(=O)[C@H](CC(=O)O)NC(=O)[C@H](CC(N)=O)NC(=O)[C@H](CCC(N)=O)NC(=O)[C@@H](N)CSSC[C@@H](C(=O)O)NC(=O)CNC1=O
As for B1, the “release of CEA-imposed myogenic differentiation block, % fusion of L6 (CEA) cells at 100 µM peptide” value in assay [4] is 36 % fusion.

B2: cyclized peptide H-CGYSWYKC-OH (subdomain 1) (peptide)
peptide: H-CGYSWYKC-OH
modifications: disulfide 1-8
SMILES: NCCCC[C@@H]1NC(=O)[C@H](Cc2ccc(O)cc2)NC(=O)[C@H](Cc2c[nH]c3ccccc23)NC(=O)[C@H](CO)NC(=O)[C@H](Cc2ccc(O)cc2)NC(=O)CNC(=O)[C@@H](N)CSSC[C@@H](C(=O)O)NC1=O
For the molecule B2, the “release of CEA-imposed myogenic differentiation block, % fusion of L6 (CEA) cells at 100 µM peptide” value in assay [4] came out at 18 % fusion.

B3: cyclized peptide H-CGNRQIIC-OH (subdomain 2) (peptide)
peptide: H-CGNRQIIC-OH
modifications: disulfide 1-8
SMILES: CC[C@H](C)[C@@H]1NC(=O)[C@H](CCC(N)=O)NC(=O)[C@H](CCCNC(=N)N)NC(=O)[C@H](CC(N)=O)NC(=O)CNC(=O)[C@@H](N)CSSC[C@@H](C(=O)O)NC(=O)[C@H]([C@@H](C)CC)NC1=O
Take B3: in assay [4], the “release of CEA-imposed myogenic differentiation block, % fusion of L6 (CEA) cells at 100 µM peptide” value was found to be 28 % fusion.
